{"source": "patent US8648180B2", "about": "“Compound Smilaxchinoside F” (Guilin Sanjin Pharmaceuticals Co., Ltd., priority 2010, dated 2014)", "system": "Human lung cancer cells Spc-A1", "experiment": "MTT method, anti-proliferation on lung cancer cell line SPC-A1", "format": "cell-based", "conditions": "for Inhibition rate (%) / OD value: 5Fu 10^−4 mol/L; for OD value: A at 490 nm, x ± s, n = 5", "protocol": "Human lung cancer cells Spc-A1 (hereinafter referred to as SPC), is purchased from Wuhan Cell Collection Center (cell bank of China Center for Type CultureCollection).\nThe tumor cells are placed in the RPMI-1640 complete medium including 10% fetal calf serum and are cultured at 37° C. under 5% CO2 incubator. When the cell growth reaches the logarithmic phase (approximately 80% integration), cells are subcultured. The experiments are divided into negative control group (RPMI-1640), positive drug group (5Fu, 10^−4 mol·L^−1) and reagent group of Smilaxchinoside F at different concentrations, which are prepared by Guilin Sanjin Pharmaceutical Co., Ltd, in accordance with example 1 of the present invention.\n5×10^7·L^−1 cells at logarithmic phase are seeded in 96-well plates, each well 180 μL. After culturing for 24 h, medicine is added, each well 20 μL, five parallel wells for each group. On 4 hours before the end of culture, 20 μL of 5 g·L^−1 MTT solution is added to the each well. After the end of the culture (48 h and 72 h), the supernatant is discarded. 150 μL of DMSO is added to each wells; the optical density (A value) of each well is detected by a microplate reader at 490 nm; the tumor suppression percentage is calculated.", "note": "“And” between values parts separate entries of the source, which are not always exact repeats. Identical values can stand only once."}
{"molecule": "O=c1[nH]cc(F)c(=O)[nH]1", "note": "[5Fu]", "values": [{"measurement": "Effect on SPA (lung cancer) cell proliferation in vitro, in words", "result": "significant anti-tumor effect"}, {"measurement": "Inhibition rate (%)", "setting": "48 h", "result": "39.4% and 39.37%"}, {"measurement": "OD value", "setting": "48 h", "result": "0.372 ± 0.031"}, {"measurement": "Inhibition rate (%)", "setting": "72 h", "result": "59.6% and 59.61%"}, {"measurement": "OD value", "setting": "72 h", "result": "0.295 ± 0.026"}]}
